Experimental data taken from PMC7558399, “In Vitro Selective Growth-Inhibitory Activities of Phytochemicals, Synthetic Phytochemical Analogs, and Antibiotics against Diarrheagenic/Probiotic Bacteria and Cancer/Normal Intestinal Cells” (Pharmaceuticals, 2020).
In brackets after ≈: the same amount, converted by molar mass. Like-named read-outs stand apart in the source and are kept apart here.

Tests used:
Format in all cases: cell-based
[1] = system: Bifidobacterium breve (ATCC 15700); assay: Broth microdilution MIC, B. breve; conditions: ATCC15700, growth inhibited by ≥80%, read-out: MIC
[2] = system: probiotic bacteria (9 strains); assay: Broth microdilution MIC, probiotic bacteria as a group (mean or range over strains); conditions: mean of 9 strains; >512 replaced with 1024; read-out: x¯ -PB ± SD: mean MIC for probiotic bacteria
[3] = system: Lactobacillus reuteri (CCM 3625); assay: Broth microdilution MIC, L. reuteri; conditions: Limosilactobacillus reuteri, CCM3625; Lactobacillus reuteri; growth inhibited by ≥80%; read-out: MIC
[4] = system: diarrheagenic bacteria (12 strains); assay: microbe, parasite or virus in culture
[5] = system: Bifidobacterium adolescentis (DSMZ 20087); assay: Broth microdilution MIC, B. adolescentis; conditions: DSMZ20087, growth inhibited by ≥80%, read-out: MIC
[6] = system: Bifidobacterium longum ssp. longum (DSMZ 20219); assay: Broth microdilution MIC, B. longum ssp. longum; conditions: DSMZ20219; Bifidobacterium longum ssp. longum; growth inhibited by ≥80%; read-out: MIC
[7] = system: Vibrio parahaemolyticus (ATCC 17802); assay: Broth microdilution MIC, V. parahaemolyticus; conditions: ATCC17802, growth inhibited by ≥80%, read-out: MIC
[8] = system: Bacteroides fragilis (ATCC 25285); assay: Broth microdilution MIC, B. fragilis; conditions: ATCC25285, growth inhibited by ≥80%, read-out: MIC
[9] = system: Yersinia enterocolitica (ATCC 9610); assay: Broth microdilution MIC, Y. enterocolitica; conditions: ATCC9610, growth inhibited by ≥80%, read-out: MIC
[10] = system: Listeria monocytogenes (ATCC 7644); assay: Broth microdilution MIC, L. monocytogenes; conditions: ATCC7644, growth inhibited by ≥80%, read-out: MIC
[11] = system: intestinal cancer cells (HT29 and Caco-2); assay: MTT cytotoxicity assay, mean for intestinal cancer cells; conditions: for IC50 / x¯ -CC ± SD: mean IC50 for intestinal cancer cells: mean of HT29 and Caco-2, >512 replaced with 1024; for IC50: read-out: x¯ -CC ± SD: mean IC50 for intestinal cancer cells; for IC80: read-out: x¯ -CC ± SD: mean IC80 for intestinal cancer cells
[12] = system: Shigella flexneri (ATCC 12022); assay: microbe, parasite or virus in culture; conditions: ATCC12022
[13] = system: Bifidobacterium bifidum (ATCC 29521); assay: Broth microdilution MIC, B. bifidum; conditions: ATCC29521, growth inhibited by ≥80%, read-out: MIC
[14] = system: Lactobacillus casei (DSMZ 20011); assay: Broth microdilution MIC, L. casei; conditions: Lacticaseibacillus casei, DSMZ20011; Lactobacillus casei; growth inhibited by ≥80%; read-out: MIC
[15] = system: S. enterica ssp. enterica serovar Typhimurium (ATCC 14028); assay: Broth microdilution MIC, Salmonella Typhimurium; conditions: Salmonella Typhimurium, growth inhibited by ≥80%, read-out: MIC
[16] = system: Bacillus cereus (ATCC 14579); assay: Broth microdilution MIC, B. cereus; conditions: ATCC14579, growth inhibited by ≥80%, median/mode, read-out: MIC
[17] = system: Lactobacillus rhamnosus (CCM 7091); assay: Broth microdilution MIC, L. rhamnosus; conditions: Lacticaseibacillus rhamnosus, CCM7091; Lactobacillus rhamnosus; growth inhibited by ≥80%; read-out: MIC
[18] = system: Bifidobacterium animalis spp. lactis (DSMZ 10140); assay: Broth microdilution MIC, B. animalis spp. lactis; conditions: DSMZ10140; Bifidobacterium animalis spp. lactis; growth inhibited by ≥80%; read-out: MIC
[19] = system: Escherichia coli (ATCC 25922); assay: Broth microdilution MIC, E. coli; conditions: ATCC25922, growth inhibited by ≥80%, read-out: MIC
[20] = system: E. coli 0175:H7 (NCTC 12900); assay: microbe, parasite or virus in culture; conditions: Escherichia coli, NCTC12900
[21] = system: Clostridium perfringens (DSMZ 11778); assay: microbe, parasite or virus in culture; conditions: DSMZ11778
[22] = system: Clostridium difficile (DSMZ 12056); assay: microbe, parasite or virus in culture; conditions: Clostridioides difficile, DSMZ12056, Clostridium difficile, read-out: MIC
[23] = system: Caco-2 (ATCC HTB 37) intestinal cancer cells; assay: MTT cytotoxicity assay, Caco-2; conditions: Homo sapiens, Caco-2, MTT, 72 h; for IC50: read-out: IC50 ± SD; for IC80: read-out: IC80 ± SD (80% inhibitory concentration of proliferation)
[24] = system: FHs 74 Int (ATCC CCL 241) intestinal normal cells; assay: MTT cytotoxicity assay, FHs 74 Int; conditions: FHs74Int, 72 h, FHs 74 Int (intestinal normal cells), MTT; for IC50: read-out: IC50 ± SD; for IC80: read-out: IC80 ± SD (80% inhibitory concentration of proliferation)
[25] = system: Enterococcus faecalis (ATCC 29212); assay: Broth microdilution MIC, E. faecalis; conditions: ATCC29212, growth inhibited by ≥80%, read-out: MIC
[26] = system: HT29 (ATCC HTB 38) intestinal cancer cells; assay: MTT cytotoxicity assay, HT29; conditions: Homo sapiens, HT-29, HT29, MTT, 72 h; for IC50: read-out: IC50 ± SD; for IC80: read-out: IC80 ± SD (80% inhibitory concentration of proliferation)
[27] = system: Salmonella enterica ssp. enterica serovar Enteritidis (ATCC 13076); assay: Broth microdilution MIC, Salmonella Enteritidis; conditions: Salmonella Enteritidis, growth inhibited by ≥80%, read-out: MIC
[28] = mean of 12 strains, >512 replaced with 1024, read-out: x¯ -DB ± SD: mean MIC for diarrheagenic bacteria

SMILES: Oc1c(Cl)cc(Cl)c2cccnc12 [CLX, 5,7-dichloroquinolin-8-ol]
- MIC [1]: 64 µg/mL (≈ 299 µM)
- MIC [2]: 245 ± 306 µg/mL (≈ 1150 µM)
- MIC [3]: 128 µg/mL (≈ 598 µM)
- MIC [4, 28]: 24 ± 19 µg/mL (≈ 112 µM)
- MIC [5]: 128 µg/mL (≈ 598 µM)
- MIC [6]: 64 µg/mL (≈ 299 µM)
- MIC [7]: 16 µg/mL (≈ 74.7 µM)
- MIC [8]: 32 µg/mL (≈ 149 µM)
- MIC [9]: 16 µg/mL (≈ 74.7 µM)
- MIC [10]: 32 µg/mL (≈ 149 µM)
- IC50 [11]: 2.5 ± 1.2 µg/mL (≈ 11.7 µM)
- IC80 [11]: 5.4 ± 0.5 µg/mL (≈ 25.2 µM)
- MIC [12]: 16 µg/mL (≈ 74.7 µM)
- MIC [13]: > 512 µg/mL
- MIC [14]: 128 µg/mL (≈ 598 µM)
- MIC [15]: 16 µg/mL (≈ 74.7 µM)
- MIC [16]: 8 µg/mL (≈ 37.4 µM)
- MIC [17]: 128 µg/mL (≈ 598 µM)
- MIC [18]: 512 µg/mL (≈ 2390 µM)
- MIC [19]: 16 µg/mL (≈ 74.7 µM)
- MIC [20]: 64 µg/mL (≈ 299 µM)
- MIC [21]: 16 µg/mL (≈ 74.7 µM)
- MIC ([22]; growth inhibited by ≥80%): 8 µg/mL (≈ 37.4 µM)
- IC50 [23]: 1.3 ± 0.04 µg/mL (≈ 6.07 µM)
- IC80 [23]: 5.9 ± 0.7 µg/mL (≈ 27.6 µM)
- IC50 [24]: 0.5 ± 0.02 µg/mL (≈ 2.34 µM)
- IC80 [24]: 2 ± 0.1 µg/mL (≈ 9.34 µM)
- MIC [25]: 16 µg/mL (≈ 74.7 µM)
- IC50 [26]: 3.7 ± 0.3 µg/mL (≈ 17.3 µM)
- IC80 [26]: 5 ± 0.7 µg/mL (≈ 23.4 µM)
- MIC [27]: 64 µg/mL (≈ 299 µM)

SMILES: O=[N+]([O-])c1ccc(O)c2ncccc12 [NXL, 5-nitroquinolin-8-ol]
- MIC [1]: 32 µg/mL (≈ 168 µM)
- MIC [2]: 20 ± 9 µg/mL (≈ 105 µM)
- MIC [3]: 16 µg/mL (≈ 84.1 µM)
- MIC ([4]; B. cereus, clostridial species, E. coli, and S. flexneri, read-out: MICs): 2 to 4 µg/mL (≈ 10.5 to 21 µM)
- MIC [4, 28]: 12 ± 10 µg/mL (≈ 63.1 µM)
- MIC [5]: 16 µg/mL (≈ 84.1 µM)
- MIC [6]: 16 µg/mL (≈ 84.1 µM)
- MIC [7]: 8 µg/mL (≈ 42.1 µM)
- MIC [8]: 4 µg/mL (≈ 21 µM)
- MIC [9]: 8 µg/mL (≈ 42.1 µM)
- MIC [10]: 16 µg/mL (≈ 84.1 µM)
- IC50 [11]: 1.8 ± 0.8 µg/mL (≈ 9.47 µM)
- IC80 [11]: 4.4 ± 0.7 µg/mL (≈ 23.1 µM)
- MIC [12]: 2 µg/mL (≈ 10.5 µM)
- MIC [13]: 16 µg/mL (≈ 84.1 µM)
- MIC [14]: 32 µg/mL (≈ 168 µM)
- MIC [15]: 16 µg/mL (≈ 84.1 µM)
- MIC [16]: 4 µg/mL (≈ 21 µM)
- MIC [17]: 16 µg/mL (≈ 84.1 µM)
- MIC [18]: 32 µg/mL (≈ 168 µM)
- MIC [19]: 4 µg/mL (≈ 21 µM)
- MIC [20]: 32 µg/mL (≈ 168 µM)
- MIC [21]: 4 µg/mL (≈ 21 µM)
- MIC ([22]; […]): 2 µg/mL (≈ 10.5 µM)
- IC50 [23]: 1.1 ± 0.03 µg/mL (≈ 5.78 µM)
- IC80 [23]: 5 ± 1.5 µg/mL (≈ 26.3 µM)
- IC50 [24]: 0.4 ± 0.05 µg/mL (≈ 2.1 µM)
- IC80 [24]: 0.8 ± 0.05 µg/mL (≈ 4.21 µM)
- MIC [25]: 32 µg/mL (≈ 168 µM)
- IC50 [26]: 2.6 ± 0.3 µg/mL (≈ 13.7 µM)
- IC80 [26]: 3.7 ± 0.4 µg/mL (≈ 19.5 µM)
- MIC [27]: 16 µg/mL (≈ 84.1 µM)

SMILES: O=C(O)c1ccccc1O [SA, salicylic acid]
- MIC [1]: > 512 µg/mL
- MIC [2]: 597 ± 336 µg/mL (≈ 4320 µM)
- MIC [3]: 512 µg/mL (≈ 3710 µM)
- MIC [4, 28]: 960 ± 212 µg/mL (≈ 6950 µM)
- MIC [5]: > 512 µg/mL
- MIC [6]: 512 µg/mL (≈ 3710 µM)
- MIC [7]: > 512 µg/mL
- MIC [8]: 128 µg/mL (≈ 927 µM)
- MIC [9]: > 512 µg/mL
- MIC [10]: > 512 µg/mL
- x¯ -CC ± SD: mean IC50 for intestinal cancer cells [11]: - (Not active (MIC/IC50/80 > 512 μg/mL, the value 1024 μg/mL was used for average calculation))
- x¯ -CC ± SD: mean IC50 for intestinal cancer cells ([11]; listed as salicylic acid): ≥ 253.6 ± 208 µg/mL
- IC80 [11]: > 512 µg/mL
- MIC [12]: > 512 µg/mL
- MIC [13]: > 512 µg/mL
- MIC [14]: 512 µg/mL (≈ 3710 µM)
- MIC [15]: > 512 µg/mL
- MIC [16]: > 512 µg/mL
- MIC [17]: 512 µg/mL (≈ 3710 µM)
- MIC [18]: 128 µg/mL (≈ 927 µM)
- MIC [19]: > 512 µg/mL
- MIC [20]: > 512 µg/mL
- MIC [21]: > 512 µg/mL
- MIC ([22]; […]): 256 µg/mL (≈ 1850 µM)
- IC50 [23]: > 512 µg/mL
- IC80 [23]: > 512 µg/mL
- IC50 [24]: 73.2 ± 4.6 µg/mL (≈ 530 µM)
- IC80 [24]: 207 ± 69 µg/mL (≈ 1500 µM)
- MIC [25]: > 512 µg/mL
- IC50 [26]: > 512 µg/mL
- IC80 [26]: > 512 µg/mL
- MIC [27]: > 512 µg/mL
